Results reported in patent publication US11629139B2 (priority 2017, dated 2023).

Each molecule was assayed on vesicular stomatitis virus particles (VSV) pseudotyped with EboV Zaire GP (assay: microbe, parasite or virus in culture). Settings: not given.
Format: cell-based

Structure (SMILES) | IC50 [nM]
Nc1ccc(Cl)cc1CN1CCN(C(=O)CNC(=O)C2CC23CCCC3)CC1 (stereo not shown) [Compound 1410, N-(2-(4-(2-Amino-5-chlorobenzyl)piperazin-1-yl)-2-oxoethyl)spiro[2.4]heptane-1-carboxamide] | 220 to 490
Nc1ccc(Cl)cc1CN1CCN(C(=O)CNC(=O)C2CC23CCC3)CC1 (stereo not shown) [Compound 1409, N-(2-(4-(2-Amino-5-chlorobenzyl)piperazin-1-yl)-2-oxoethyl)spiro[2.3]hexane-1-carboxamide] | 2900

Same assay, conditions: Vesicular stomatitis virus

Structure (SMILES) | IC50 [nM]
[2H]C([2H])(c1cc(Cl)ccc1NCc1ccc(C#N)cn1)N1CCN(C(=O)CNC(=O)[C@@H]2CC23CCC(F)(F)CC3)CC1 [Compound 1584] | 30
CS(=O)(=O)c1ccc(COc2ccc(Cl)cc2CN2CCN(C(=O)CNC(=O)C3CC34CCCCC4)CC2)cc1 (stereo not shown) [Compound 1539, Spiro[2.5]octane-1-carboxylic acid (2-{4-[5-chloro-2-(4-methanesulfonyl-benzyloxy)-benzyl]-piperazin-1-yl}-2-oxo-ethyl)-amide] | 100
COC(=O)c1ccc(COc2ccc(Cl)cc2CN2CCN(C(=O)CNC(=O)CC3(C)CCCCC3)CC2)cc1 [Compound 1334, Methyl 4-((4-chloro-2-((4-((2-(1-methylcyclohexyl)acetyl)glycyl)piperazin-1-yl)methyl)phenoxy)methyl)benzoate] | 19
Nc1ccc(CN2CCN(C(=O)CNC(=O)C3CC34CCC(F)(F)CC4)CC2)cc1Cl (stereo not shown) [Compound 1390, N-(2-(4-(4-Amino-3-chlorobenzyl)piperazin-1-yl)-2-oxoethyl)-6,6-difluorospiro[2.5]octane-1-carboxamide] | 1100
N#Cc1ccc(Br)cc1CN1CCN(C(=O)CNC(=O)CC2CCC(F)(F)CC2)CC1 [Compound 1371, N-(2-(4-(5-Bromo-2-cyanobenzyl)piperazin-1-yl)-2-oxoethyl)-2-(4,4-difluorocyclohexyl)acetamide] | > 2000
COC(=O)c1ccc(COc2ccc(Cl)cc2CN2CCN(C(=O)CNC(=O)C3C4CC(F)(F)CC43)CC2)cc1 (stereo not shown) [Compound 1346, Methyl 4-((4-chloro-2-((4-((3,3-difluorobicyclo[3.1.0]hexane-6-carbonyl)glycyl)piperazin-1-yl)methyl)phenoxy)methyl)benzoate] | 200
O=C(CC1CCC(F)(F)CC1)NCC(=O)N1CCN(Cc2cc(F)cc3cccnc23)CC1 [Compound 1429, 2-(4,4-Difluorocyclohexyl)-N-(2-(4-((6-fluoroquinolin-8-yl)methyl)piperazin-1-yl)-2-oxoethyl)acetamide] | 950
N#Cc1ccc(COc2ccccc2CN2CCN(C(=O)CNC(=O)CC34CC5CC(CC(C5)C3)C4)CC2)cc1 [Compound 1259] | 700
[2H]C([2H])(c1cc(Cl)ccc1NCc1ccc(S(C)(=O)=O)c(F)c1)N1CCN(C(=O)CNC(=O)[C@@H]2CC23CCC(F)(F)CC3)CC1 [Compound 1561] | 8
O=C(CC12CC3CC(CC(C3)C1)C2)NCC(=O)N1CCN(Cc2cc(F)c(F)cc2O)CC1 [Compound 1324, 2-((1R,3R,5S)-Adamantan-1-yl)-N-(2-(4-(4,5-difluoro-2-hydroxybenzyl)piperazin-1-yl)-2-oxoethyl)acetamide] | 1500
O=C(NCC(=O)N1CCN(Cc2cc(Cl)ccc2O)CC1)C1CC12CCC(F)(F)CC2 (stereo not shown) [Compound 1398, N-(2-(4-(5-Chloro-2-hydroxybenzyl)piperazin-1-yl)-2-oxoethyl)-6,6-difluorospiro[2.5]octane-1-carboxamide] | 75 to 320
O=C(CC1CCC(F)(F)CC1)NCC(=O)N1CCN(Cc2cc(Br)ccc2O)CC1 [Compound 1400, N-(2-(4-(5-Bromo-2-hydroxybenzyl)piperazin-1-yl)-2-oxoethyl)-2-(4,4-difluorocyclohexyl)acetamide] | 670
O=C(Nc1ncc(Cl)cc1CN1CCN(C(=O)CNC(=O)C2CC23CCC(F)(F)CC3)CC1)NC1CC1 (stereo not shown) [Compound 1393, N-(2-(4-((5-Chloro-2-(3-cyclopropylureido)pyridin-3-yl)methyl)piperazin-1-yl)-2-oxoethyl)-6,6-difluorospiro[2.5]octane-1-carboxamide] | > 5000
O=C(CC12CC3CC(CC(Br)(C3)C1)C2)NCC(=O)N1CCN(Cc2ccccc2OCc2ccc(Br)cc2)CC1 [Compound 1245] | 600
O=C(CC12CC3CC(CC(C3)C1)C2)NCC(=O)N1CCN(Cc2cc(Cl)ccc2Br)CC1 [Compound 1351, 2-((1R,3R,5S)-Adamantan-1-yl)-N-(2-(4-(2-bromo-5-chlorobenzyl)piperazin-1-yl)-2-oxoethyl)acetamide] | 1100
NC(=O)c1ccc(Cl)cc1CN1CCN(C(=O)CNC(=O)CC23CC4CC(CC(C4)C2)C3)CC1 [Compound 1804] | 1900
COC(=O)c1ccc(CCc2ccccc2CN2CCN(C(=O)CNC(=O)CC34CC5CC(CC(C5)C3)C4)CC2)cc1 [Compound 1123] | 20
O=C(CNC(=O)C12CC3CC(C1)CC(c1ccc(O)c([N+](=O)[O-])c1)(C3)C2)N1CCN(Cc2ccccc2OCc2ccc(Br)cc2)CC1 [Compound 1805, (1s,3r,5R,7S)—N-(2-(4-(2-((4-bromobenzyl)oxy)benzyl)piperazin-1-yl)-2-oxoethyl)-3-(4-hydroxy-3-nitrophenyl)adamantane-1-carboxamide] | 600
Nc1c(Cl)cc(Cl)cc1CN1CCN(C(=O)CNC(=O)CC2CCC(F)(F)CC2)CC1 [Compound 1381, N-(2-(4-(2-Amino-3,5-dichlorobenzyl)piperazin-1-yl)-2-oxoethyl)-2-(4,4-difluorocyclohexyl)acetamide] | > 2000

Structure (SMILES) | IC50 [nM]
O=C(CC1CCC(F)(F)CC1)NCC(=O)N1CCN(Cc2cc(Cl)ccc2OC(F)(F)F)CC1 [Compound 1372] | > 2000
NC(=O)Nc1ccc(Br)cc1CN1CCN(C(=O)CNC(=O)CC2CCC(F)(F)CC2)CC1 [Compound 1360, N-(2-(4-(5-Bromo-2-ureidobenzyl)piperazin-1-yl)-2-oxoethyl)-2-(4,4-difluorocyclohexyl)acetamide] | > 2000
O=C(CNC(=O)C12CC3(F)CC(F)(CC(F)(C3)C1)C2)N1CCN(Cc2ccccc2OCc2ccc(Br)cc2)CC1 [Compound 1255] | 400
O=C(CC1CCC(F)(F)CC1)NCC(=O)N1CCN(Cc2cc(Br)ccc2NC(=O)C2CC2)CC1 [Compound 1375, N-(4-Bromo-2-((4-((2-(4,4-difluorocyclohexyl)acetyl)glycyl)piperazin-1-yl)methyl)phenyl)cyclopropanecarboxamide] | > 2000
O=C(CC12CC3CC(CC(C3)C1)C2)NCC(=O)N1CCN(Cc2cc(Br)ccc2O)CC1 [Compound 1026] | 300 to 500
CS(=O)(=O)c1ccc(COc2ccc(F)cc2CN2CCN(C(=O)CNC(=O)CC3CCC(F)(F)CC3)CC2)cc1 [Compound 1455] | 40
[2H]C([2H])(c1cc(Cl)ccc1NCc1ccc(S(C)(=O)=O)cc1F)N1CCN(C(=O)CNC(=O)[C@@H]2CC23CCC(F)(F)CC3)CC1 [Compound 1562] | 13
Nc1c(Cl)cc(Cl)cc1CN1CCN(C(=O)CNC(=O)CC23CC4CC(CC(C4)C2)C3)CC1 [Compound 1349, 2-((1R,3R,5S)-Adamantan-1-yl)-N-(2-(4-(2-amino-3,5-dichlorobenzyl)piperazin-1-yl)-2-oxoethyl)acetamide] | 500
O=C(CC1CCC(F)(F)CC1)NCC(=O)N1CCN(Cc2cc(Cl)cc3cn[nH]c23)CC1 [Compound 1406, N-(2-(4-((5-Chloro-JH-indazol-7-yl)methyl)piperazin-1-yl)-2-oxoethyl)-2-(4,4-difluorocyclohexyl)acetamide] | 460
O=C(CC1CCC(F)(F)CC1)NCC(=O)N1CCN(Cc2cc(Cl)cc(Oc3ccncc3)c2)CC1 [Compound 1432, N-(2-(4-(3-Chloro-5-(pyridin-4-yloxy)benzyl)piperazin-1-yl)-2-oxoethyl)-2-(4,4-difluorocyclohexyl)acetamide] | 185
[2H]C([2H])(c1cc(Cl)ccc1NCC)N1CCN(C(=O)CNC(=O)C2CC23CCC(F)(F)CC3)CC1 (stereo not shown) [Compound 1534] | 200
CN(C)S(=O)(=O)c1ccc(COc2ccccc2CN2CCN(C(=O)CNC(=O)CC34CC5CC(CC(C5)C3)C4)CC2)cc1 [Compound 1258] | 400
COC(=O)c1ccc(COc2ccccc2CN2CCN(C(=O)CNC(=O)C3C4CC(F)(F)CC43)CC2)cc1 (stereo not shown) [Compound 1344, Methyl 4-((2-((4-((3,3-difluorobicyclo[3.1.0]hexane-6-carbonyl)glycyl)piperazin-1-yl)methyl)phenoxy)methyl)benzoate] | 170
Cc1ccc(Cl)cc1CN1CCN(C(=O)CNC(=O)C2CC23CCC(F)(F)CC3)CC1 (stereo not shown) [Compound 1431, N-(2-(4-(5-Chloro-2-methylbenzyl)piperazin-1-yl)-2-oxoethyl)-6,6-difluorospiro[2.5]octane-1-carboxamide] | 550
COC(=O)COc1ccc(Cl)cc1CN1CCN(C(=O)CNC(=O)CC23CC4CC(CC(C4)C2)C3)CC1 [Compound 1302, Methyl 2-(2-((4-((2-((1R,3R,5S)-adamantan-1-yl)acetyl)glycyl)piperazin-1-yl)methyl)-4-chlorophenoxy)acetate] | > 2000
COC(=O)c1ccc(COc2ccc([N+](=O)[O-])cc2CN2CCN(C(=O)CNC(=O)CC34CC5CC(CC(C5)C3)C4)CC2)cc1 [Compound 1113] | < 2000
[2H]C([2H])(c1cc(Cl)ccc1NCc1ccc(C(=O)OC)cn1)N1CCN(C(=O)CNC(=O)C2CC23CCC(F)(F)CC3)CC1 (stereo not shown) [Compound 1548, 6-{[4-Chloro-2-(4-{2-[(6,6-difluoro-spiro[2.5]octane-1-carbonyl)-amino]-acetyl}-piperazin-1-yl-di-deutero-methyl)-phenylamino]-methyl}-nicotinic acid methyl ester] | 7
COC(=O)c1ccc(COc2ccc(Br)cc2CN2CCN(C(=O)CNC(=O)CC34CC5CC(CC(C5)C3)C4)CC2)cc1 [Compound 1111] | 13

Same assay, conditions: Vesicular stomatitis virus, read-out: IC50, VSV EBOV infection

Structure (SMILES) | IC50 [nM]
CC(C)c1nc(CN(C)C(=O)N[C@H](C(=O)N[C@@H](Cc2ccccc2)C[C@H](O)[C@H](Cc2ccccc2)NC(=O)OCc2cncs2)C(C)C)cs1 [Ritonavir, reference compound] | > 25000
